According to patent US12060349B2, “Glucosylceramide synthase inhibitors” (Genzyme Corporation, priority 2012, dated 2024):
Read-outs that look alike come from different tables or passages of the source.

Tests used:
B16 mouse melanoma cells = test: cell viability in the B16 cell-based assay (Viability, B16 IC50)
In short: (§1)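 Cell death was scored within the cell-based GM3 experiment for each line. The viability value is the concentration producing 50% death, and numbers exceeding 10 signify no cytotoxicity.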

[1] = test system: GM3 expression on the cell surface, C32 human melanoma cells; test: cell based phenotypic assay, cell surface GM3 by antibody mediated immunofluorescence, C32 (GM3 C32 IC50); conditions: 50% inhibition of GM3 expression on the cell surface
In short: (§2)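 Two melanoma lines, mouse B16 and human C32, were treated and surface GM3 quantified by antibody immunofluorescence for IC50. A parallel viability readout gives the concentration killing 50% of cells, with values over 10 indicating no cell death.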

[2] = test system: GM3 expression on the cell surface, B16 mouse melanoma cells; test: cell based phenotypic assay, cell surface GM3 by antibody mediated immunofluorescence, B16 (GM3 B16 IC50); conditions: 50% inhibition of GM3 expression on the cell surface
In short: as §2

C32 human melanoma cells = test: cell viability in the C32 cell-based assay (Viability, C32 IC50); conditions: concentration causing 50% cell death, values greater than 10 represent a lack of cell death
In short: as §1

[3] = target: T1, glucosylceramide synthase (Homo sapiens, UniProt Q16739); test: microsomal assay measuring conversion of ceramide to glucosylceramide by HPLC (GCS IC50); type: biochemical; conditions: concentration causing 50% inhibition of glucosylceramide synthase activity
T1 construct: Microsomes were isolated from A375 human melanoma cells; endogenous in cells; host or cells: A375 human melanoma cells (microsomal fraction, 100,000 g pellet)
T1 sequence (Q16739 1-394): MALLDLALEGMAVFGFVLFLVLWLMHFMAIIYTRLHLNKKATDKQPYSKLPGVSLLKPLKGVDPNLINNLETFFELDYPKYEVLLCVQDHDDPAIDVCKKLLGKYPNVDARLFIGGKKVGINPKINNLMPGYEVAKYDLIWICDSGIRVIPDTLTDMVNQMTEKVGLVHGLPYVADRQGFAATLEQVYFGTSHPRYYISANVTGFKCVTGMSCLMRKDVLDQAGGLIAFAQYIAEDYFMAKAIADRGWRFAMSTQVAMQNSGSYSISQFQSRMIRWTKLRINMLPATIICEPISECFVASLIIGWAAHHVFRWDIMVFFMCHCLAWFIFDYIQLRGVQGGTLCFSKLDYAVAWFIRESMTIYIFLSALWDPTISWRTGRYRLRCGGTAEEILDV
In short: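 IC50 is the compound concentration halving glucosylceramide synthase activity. Activity was measured in microsomes, with HPLC quantifying glucosylceramide formed from ceramide.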

[4] = Mus musculus, B16, B16 cells, concentration causing 50% cell death, values greater than 10 represent a lack of cell death, read-out: Viability, B16 IC50
[5] = Homo sapiens, C32 human melanoma cells, read-out: GM3 C32 IC50
[6] = Mus musculus, B16 mouse melanoma cells, read-out: GM3 B16 IC50
[7] = Homo sapiens, C32, C32 cells, read-out: Viability, C32 IC50
[8] = Homo sapiens, read-out: GM3 C32 IC50, C32 human melanoma cells
[9] = Mus musculus, read-out: GM3 B16 IC50, B16 mouse melanoma cells

SMILES	IC50 (B16 mouse melanoma cells; [4])	IC50 [1, 5]	IC50 [2, 6]	IC50 (C32 human melanoma cells; [7])	IC50 [3]	other results
COCCCOc1ccc(-c2ccnc(N3CCC(C(=O)NC4CN5CCC4CC5)CC3)n2)cc1 (stereo not shown) [Example 72, 1-(4-(4-(3-Methoxypropoxy)phenyl)pyrimidin-2-yl)-N-(quinuclidin-3-yl)piperidine-4-carboxamide]	8630 nM	0.26 nM	79.5 nM	464 nM	1.16 nM	
CCC1(NC(=O)NC2(c3ccc(-c4ccc(COCc5cccnc5)cc4)cc3)CC2)CN2CCC1CC2 (stereo not shown) [Example 217, 1-(3-Ethylquinuclidin-3-yl)-3-(1-(4′-((pyridin-3-ylmethoxy)methyl)-[1,1′-biphenyl]-4-yl)cyclopropyl)urea]	≥ 10000 nM	4.02 nM	168 nM	≥ 10000 nM	13.3 nM	
COCCCOc1ccc(-c2cccc(C(C)(C)NC(=O)OC3CCN4CCC3CC4)c2)nn1 (stereo not shown) [Example 313, 1-Azabicyclo[3.2.2]nonan-4-yl (2-(3-(6-(3-methoxypropoxy)pyridazin-3-yl)phenyl)propan-2-yl)carbamate]	≥ 10000 nM	10.7 nM	470 nM	≥ 10000 nM	88.9 nM	
O=C(NC1(c2ccc(-c3ccc(COCc4cncnc4)cc3)cc2)CC1)OC1CCN2CCC1CC2 (stereo not shown) [Example 221, 1-Azabicyclo[3.2.2]nonan-4-yl (1-(4′-((pyrimidin-5-ylmethoxy)methyl)-[1,1′-biphenyl]-4-yl)cyclopropyl)carbamate]	≥ 10000 nM	21.1 nM	99.2 nM	≥ 10000 nM	52.1 nM	
COCCCc1ccc(-c2ccc(C(C)(C)NC(=O)NC3(C)CN4CCC3CC4)cc2)cc1 (stereo not shown) [Example 222, 1-(2-(4′-(3-Methoxypropyl)-[1,1′-biphenyl]-4-yl)propan-2-yl)-3-(3-methylquinuclidin-3-yl)urea]	≥ 10000 nM	0.758 nM	30.7 nM	≥ 10000 nM	1.7 nM	
CCC1(NC(=O)NC2(c3ccc(-c4ccc(COCc5cncnc5)cc4)cc3)CC2)CN2CCC1CC2 (stereo not shown) [Example 220, 1-(3-Ethylquinuclidin-3-yl)-3-(1-(4′-((pyrimidin-5-ylmethoxy)methyl)-[1,1′-biphenyl]-4-yl)cyclopropyl)urea]	≥ 10000 nM	6.06 nM	114 nM	3160 nM	51.6 nM	
COCCOc1ccc(-c2ccnc(N3CCC(F)(C(=O)NC4(C)CN5CCC4CC5)CC3)n2)cc1 (stereo not shown) [Example 85, 4-Fluoro-1-(4-(4-(2-methoxyethoxy)phenyl)pyrimidin-2-yl)-N-(3-methylquinuclidin-3-yl)piperidine-4-carboxamide]	≥ 10000 nM	0.389 nM	79.9 nM	316 nM	10.5 nM	
CCCC1(NC(=O)NC(C)(C)c2ccc(-c3ccc(S(C)(=O)=O)cc3)cc2)CN2CCC1CC2 (stereo not shown) [Example 237, 1-(2-(4′-(Methylsulfonyl)-[1,1′-biphenyl]-4-yl)propan-2-yl)-3-(3-propylquinuclidin-3-yl)urea]	≥ 10000 nM	6.71 nM	32.9 nM	≥ 10000 nM	35.4 nM	
COCc1ccc(-c2ccnc(N3CCC(C(=O)NC4(C)CN5CCC4CC5)CC3)n2)cc1 (stereo not shown) [Example 73, 1-(4-(4-(Methoxymethyl)phenyl)pyrimidin-2-yl)-N-(3-methylquinuclidin-3-yl)piperidine-4-carboxamide]	4640 nM	0.25 nM	47.4 nM	631 nM	3.46 nM	
COCCOCc1ccc(-c2ccc(C(C)(C)NC(=O)N3CCN4CCC3CC4)cc2)cc1 [Example 202, N-(2-(4′-((2-Methoxyethoxy)methyl)-[1,1′-biphenyl]-4-yl)propan-2-yl)-1,4-diazabicyclo[3.2.2]nonane-4-carboxamide]	≥ 10000 nM	154 nM	933 nM	≥ 10000 nM	2350 nM	
COCCOCc1ccc(-c2ccnc(N3CCC(F)(C(=O)NC4(C)CN5CCC4CC5)CC3)n2)cc1 (stereo not shown) [Example 83, 4-Fluoro-1-(4-(4-((2-methoxyethoxy)methyl)phenyl)pyrimidin-2-yl)-N-(3-methylquinuclidin-3-yl)piperidine-4-carboxamide]	≥ 10000 nM	1.13 nM	119 nM	1000 nM	13.4 nM	
COCC(C)(C)c1ccc(C#CC(C)(C)NC(=O)NC2(C)CN3CCC2CC3)cc1 (stereo not shown) [Example 339, 1-(4-(4-(1-Methoxy-2-methylpropan-2-yl)phenyl)-2-methylbut-3-yn-2-yl)-3-(3-methylquinuclidin-3-yl)urea]	≥ 10000 nM	25.7 nM	720 nM	≥ 10000 nM	136 nM	
CC1(NC(=O)C2CCN(c3ccc(-c4ccccc4)cc3)CC2)CCN2CCC1CC2 (stereo not shown) [Example 38, 1-([1,1′-Biphenyl]-4-yl)-N-(4-methyl-1-azabicyclo[3.2.2]nonan-4-yl)piperidine-4-carboxamide]	6620 nM	89.4 nM	2600 nM	6740 nM	1050 nM	
COCCOCc1ccc(-c2ccc(C(C)(C)NC(=O)OC3CN4CCC3CC4)cc2)cc1 (stereo not shown) [Example 197, Quinuclidin-3-yl (2-(4′-((2-methoxyethoxy)methyl)-[1,1′-biphenyl]-4-yl)propan-2-yl)carbamate]					32.2 nM	IC50 (B16 mouse melanoma cells; Mus musculus, B16, read-out: Viability, B16 IC50): ≥ 10000 nM; IC50 [1, 8]: 9.67 nM; IC50 [2, 9]: 309 nM; IC50 (C32 human melanoma cells; Homo sapiens, C32, read-out: Viability, C32 IC50, C32 cells): ≥ 10000 nM
CC1(NC(=O)N2CCN(c3ccc(-c4ccccc4)cc3)CC2)CCN2CCC1CC2 (stereo not shown) [Example 4, 4-([1,1′-Biphenyl]-4-yl)-N-(4-methyl-1-azabicyclo[3.2.2]nonan-4-yl)piperazine-1-carboxamide]	6160 nM	62.5 nM	1380 nM	6310 nM	1000 nM	
COCCOc1ccc(-c2cccc(N3CCC(C(=O)NC4(C)CCN5CCC4CC5)CC3)c2)cc1 (stereo not shown) [Example 68, 1-(4′-(2-Methoxyethoxy)-[1,1′-biphenyl]-3-yl)-N-(4-methyl-1-azabicyclo[3.2.2]nonan-4-yl)piperidine-4-carboxamide]	7120 nM	3.53 nM	132 nM	3160 nM	21.3 nM	
C[C@H]1CN(C(=O)NC2(C)CCN3CCC2CC3)CCN1c1nccc(-c2ccccc2)n1 (single isomer, unassigned) [Example 140]					46.9 nM	IC50 (B16 mouse melanoma cells; B16 cells, concentration causing 50% cell death, values greater than 10 represent a lack of cell death, read-out: Viability, B16 IC50): 6490 nM; IC50 ([1]; C32 human melanoma cells, read-out: GM3 C32 IC50): 574 nM; IC50 ([2]; B16 mouse melanoma cells, read-out: GM3 B16 IC50): 9080 nM; IC50 (C32 human melanoma cells; C32 cells, read-out: Viability, C32 IC50): 3160 nM
CN(C)C(=O)c1cccc(Oc2cccc(C(C)(C)NC(=O)NC3(C)CN4CCC3CC4)c2)c1 (stereo not shown) [Example 289, N,N-Dimethyl-3-(3-(2-(3-(3-methylquinuclidin-3-yl)ureido)propan-2-yl)phenoxy)benzamide]	9260 nM	91.7 nM	1410 nM	≥ 10000 nM	104 nM	
COCCOc1ccc(C#CC(C)(C)NC(=O)OC2CN3CCC2CC3)cc1 (stereo not shown) [Example 329, Quinuclidin-3-yl (4-(4-(2-methoxyethoxy)phenyl)-2-methylbut-3-yn-2-yl)carbamate]					3140 nM	IC50 (B16 mouse melanoma cells; read-out: Viability, B16 IC50, B16 cells, concentration causing 50% cell death, values greater than 10 represent a lack of cell death): ≥ 10000 nM; IC50 [1, 8]: 284 nM; IC50 [2, 9]: 2700 nM; IC50 (C32 human melanoma cells; read-out: Viability, C32 IC50, C32 cells): ≥ 10000 nM
COCCCOc1ccc(-c2ccnc(N3CCC(C(=O)NC4(C)CCN5CCC4CC5)CC3)n2)cc1 (stereo not shown) [Example 67, 1-(4-(4-(3-Methoxypropoxy)phenyl)pyrimidin-2-yl)-N-(4-methyl-1-azabicyclo[3.2.2]nonan-4-yl)piperidine-4-carboxamide]	4950 nM	0.114 nM	7.24 nM	1000 nM	1.88 nM	
